pIC50: −log10 of the molar value. Where only a bound is given, the exact number is not on record here.

Consider one molecule from patent publication US20230355647A1, “Marker for determining anti-cancer effects of mitochondrial oxidative phosphorylation pathway inhibitor” (NANJING SHIJIANG MEDICINE TECHNOLOGY CO., LTD, priority 2020, published 2023).

One experiment concerns HCC1806. As to the kind of experiment: Cell viability (CellTiter-Glo), HCC1806. It is filed as cell-based. The conditions noted are these: Homo sapiens; HCC1806 cell line, 3-4 days of culture. As for the experimental part:
(§1) Cell viability was detected using the Promega CellTiter-Glo kit, the kit reflected cell viability by directly measuring intracellular ATP content. The inhibitory effect (IC50 value) of Gboxin, a mitochondrial oxidative phosphorylation pathway inhibitor, on different tumor cell lines was tested in the Example. The name, source, and culture condition of each tumor cell line were as follows:
Cell line HCC1806 (ATCC, No. CRL-2335) was cultured in 10% fetal bovine serum-containing RPMI1640 medium (+P/S).
(§2) The above tumor cells were cultured in the relevant medium (+P/S), and incubated for 3 h, then the gradient diluted Gboxin was added, and IC50 (50% inhibiting concentration) was measured after 3-4 days of culture.
On the technique in general: In ATP-based viability assays light output follows the ATP content of the culture.

In another experiment the test system is CCRF-CEM. Briefly: Cell viability (CellTiter-Glo), CCRF-CEM. The conditions noted are these: Homo sapiens; CCRF-CEM cell line, 3-4 days of culture. It is filed as cell-based. How it is done: as §1
Cell line CCRF-CEM (ATCC, No. CCL-119) was cultured in 10% fetal bovine serum-containing RPMI1640 medium (+P/S).
as §2

The subject of a further experiment is BT-549. Briefly: Cell viability (CellTiter-Glo), BT-549. The experiment is classed as cell-based. The conditions noted are these: Homo sapiens; BT-549 cell line, 3-4 days of culture. As for the experimental part: as §1
Cell line BT-549 (ATCC, No. HTB-122) was cultured in RPMI1640 medium containing 10% fetal bovine serum and 0.023 IU/ml human insulin (+P/S).
as §2

A further experiment deals with CFPAC-1. Briefly: Cell viability (CellTiter-Glo), CFPAC-1. The conditions noted are these: Homo sapiens; CFPAC-1 cell line, 3-4 days of culture. It is filed as cell-based. How it is done:
as §1, with “follows: Cell line CFPAC-1 (ATCC, No. CRL-1918) was cultured in 10% fetal bovine serum-containing IMDM medium (+P/S). […] Cell viability was detected using the Promega CellTiter-Glo kit, the kit reflected cell viability by directly measuring intracellular ATP content.” for “follows:”

In the next experiment the test system is OCI-LY-19. Briefly: Cell viability (CellTiter-Glo), OCI-LY-19. The conditions noted are these: Homo sapiens, OCI-LY19; OCI-LY-19 cell line, 3-4 days of culture. The experiment is classed as cell-based. As for the experimental part: as §1
Cell line OCI-LY-19 (DSMZ, No. ACC-528) was cultured in 80-90% alpha-MEM medium containing 10-20% h.i. FBS (+P/S).
as §2

Another experiment relates to ATN-1. As to the kind of experiment: Cell viability (CellTiter-Glo), ATN-1. It is filed as cell-based. The conditions noted are these: Homo sapiens; ATN-1 cell line, 3-4 days of culture. How it is done:
as §1
Cell line ATN-1 (RIKEN, No. RBRC-RCB1440) was cultured in RPMI1640 medium containing 10% fetal bovine serum and 0.1 mM NEAA (+P/S).
as §2

In another experiment the test system is PANC-1. Briefly: Cell viability (CellTiter-Glo), PANC-1. The experiment is classed as cell-based. The conditions noted are these: Homo sapiens; PANC-1 cell line, 3-4 days of culture. As for the experimental part: as §1
Cell line PANC-1 (ATCC, No. CRL-1469) was cultured in 10% fetal bovine serum-containing DMEM medium (+P/S).
as §2

The subject of the next experiment is LS 180. As to the kind of experiment: Cell viability (CellTiter-Glo), LS 180. It is filed as cell-based. The conditions noted are these: Homo sapiens, LS180; LS 180 cell line, 3-4 days of culture. As for the experimental part:
as §1
Cell line LS 180 (ATCC, No. CL-187) was cultured in 10% fetal bovine serum-containing EMEM medium (+P/S).
as §2

In another experiment the test system is MDA-MB-231. Briefly: Cell viability (CellTiter-Glo), MDA-MB-231. The conditions noted are these: Homo sapiens; MDA-MB-231 cell line, 3-4 days of culture. The experiment is classed as cell-based. As for the experimental part:
as §1
Cell line MDA-MB-231 (ATCC, No. HTB-26) was cultured in 10% fetal bovine serum-containing Leibovitz's L-15 medium (+P/S).
as §2

Experiment [1] relates to brain tumors and other tumors. The conditions noted are these: study published in Nature (2019); cited from earlier work.
The test system of another experiment is NCI-H1155. Briefly: Cell viability (CellTiter-Glo), NCI-H1155. The conditions noted are these: Homo sapiens; NCI-H1155 cell line, 3-4 days of culture. It is filed as cell-based. How it is done: as §1
Cell line NCI-H1155 (ATCC, No. CRL-5818) was cultured in serum-free ACL-4 medium (+P/S).
as §2

The test system of the next experiment is SU-DHL-2. Briefly: Cell viability (CellTiter-Glo), SU-DHL-2. The experiment is classed as cell-based. The conditions noted are these: Homo sapiens; SU-DHL-2 cell line, 3-4 days of culture. As for the experimental part: as §1
Cell line SU-DHL-2 (ATCC, No. CRL-2956) was cultured in 10% fetal bovine serum-containing RPMI1640 medium (+P/S).
as §2

For a further experiment, the system named is C3A. As to the kind of experiment: Cell viability (CellTiter-Glo), C3A. It is filed as cell-based. The conditions noted are these: Homo sapiens; C3A cell line, 3-4 days of culture. How it is done:
as §1
Cell line C3A (ATCC, No. CRL-10741) was cultured in 10% fetal bovine serum-containing EMEM medium (+P/S).
as §2

A further experiment has as its system 786-O. As to the kind of experiment: Cell viability (CellTiter-Glo), 786-O. The conditions noted are these: Homo sapiens, 786-0; 786-O cell line, 3-4 days of culture. The experiment is classed as cell-based. As for the experimental part: as §1, with “follows: Cell line 786-O (ATCC, No. CRL-1932) was cultured in 10% fetal bovine serum-containing RPMI1640 medium (+P/S). […] Cell viability was detected using the Promega CellTiter-Glo kit, the kit reflected cell viability by directly measuring intracellular ATP content.” for “follows:”

A further experiment relates to U-937. As to the kind of experiment: Cell viability (CellTiter-Glo), U-937. The conditions noted are these: Homo sapiens; U-937 cell line, 3-4 days of culture. It is filed as cell-based. How it is done:
as §1
Cell line U-937 (ATCC, No. CRL-1593.2) was cultured in 10% fetal bovine serum-containing RPMI1640 medium (+P/S).
as §2

The subject of the next experiment is Jurkat, Clone E6-1. Briefly: Cell viability (CellTiter-Glo), Jurkat, Clone E6-1. The conditions noted are these: Homo sapiens, Clone E6-1 cell line, 3-4 days of culture. It is filed as cell-based. As for the experimental part: as §1
Cell line Jurkat, Clone E6-1 (ATCC, No. TIB-152) was cultured in 10% fetal bovine serum-containing RPMI1640 medium (+P/S).
as §2

In a further experiment the test system is ACHN. Briefly: Cell viability (CellTiter-Glo), ACHN. The experiment is classed as cell-based. The conditions noted are these: Homo sapiens; ACHN cell line, 3-4 days of culture. As for the experimental part: as §1
Cell line ACHN (ATCC, No. CRL-1611) was cultured in 10% fetal bovine serum-containing EMEM medium (+P/S).
as §2

Turning to `CCc1n(CC(=O)O[C@@H]2C[C@H](C)CC[C@H]2C(C)C)c2ccccc2[n+]1C.[Cl-]` [Gboxin], the negative-log IC50 (pIC50) with HCC1806 is 5.50; in the experiment on CCRF-CEM it was 5.59; with BT-549, 5.48; with CFPAC-1, less than 4.52; in the experiment with OCI-LY-19, 5.60; with ATN-1, 5.81. Moreover, the pIC50 in the experiment with PANC-1 was 4.92; in the experiment on LS 180 it was 5.05; in the experiment on MDA-MB-231, 4.75; in the experiment with NCI-H1155, 5.05; with SU-DHL-2, 6.01; in the experiment on C3A, 4.59. For the same molecule, the pIC50 in the experiment with 786-O was less than 4.52; in the experiment with U-937 it was 5.39; in the experiment with Jurkat, Clone E6-1, 5.45; in the experiment with ACHN it was 4.78. The “killing effect on brain tumors and other tumors” value in experiment [1] is given as “excellent killing effect”.

The term pIC50 denotes the IC50 on a negative log10 scale, so that one unit is a factor of ten. A low value points to a high IC50.
